# In patent US5053431A, “Derivatives of chrysophanol as topoisomerase II inhibitors” (Sloan-Kettering Institute For Cancer Research, priority 1990, dated 1991):
# Like-named read-outs stand apart in the source and are kept apart here.
# Tests used:
# [1] = test system: human leukemia HL-60 cells; experiment: HL-60 cell growth inhibition (72 h); assay type: cell-based; details: HL-60, 72 h, 0.2% DMSO, read-out: ID50, M [HL-60 cell growth (72 h)] (A)
# Procedure: For cell growth inhibition studies, HL-60 cells […]) were grown in RPMI 1640 media at 37° C. in humidified 5% CO2 for 72 h. Viable cells were counted with the trypan blue exclusion method. The fractional inhibitions at four or five concentrations of compounds (in 0.2% DMSO) were analyzed with a median-effect plot (Chou, T.-C., et al., Adv. Enzyme Regul. 22:27 (1984)) by using a computer program. (Chou, J.; Chou, T.-C. Dose-Effect Analyses with Microcomputer. Quantitation of ID50, LD50, Synergism, Antagonism, Low-dose Risk, Receptor-Binding and Enzyme Kinetics; IBM-PC Series, Elsevier-Biosoft, Elsevier Scientific: Cambridge, U.K., (1986)). The median-effect concentration (ID50) was automatically determined for the x intercept of the median-effect plot. Cell growth in the absence of a compound and in the presence of DMSO was used as a control. DMSO (0.2%) alone inhibited cell growth 3.8±1.2% during the 72-h incubation period.
# [2] = test system: DNA (native and thermally denatured); experiment: Spectrophotometric study of DNA interaction; assay type: binding, calf thymus; details: absorption spectra, native and thermally denatured DNA
# Procedure: Some representative compounds were studied for their ability to interact with nucleic acids in solution by comparison of the electronic spectrum of drug alone with that of the drug in the presence of an excess of nucleic acid. All drugs studied have an absorption band in the visible region, separate from the absorption band of the nucleic acids, and therefore any changes in band intensity and position were indicative of drug chromophore-DNA interaction.
# Absorption spectra were measured with an IBM 9410 UV-visible spectrometer interfaced to an HP 9826 computer. Small volumes of the stock drug solutions (2 mg/mL in Me2 SO) were added to 2 mL of buffer (0.01 or 0.1 M NaCl, 5 mM Hepes, pH 7) to obtain a final drug concentration of 5-15 μM, or to the solution of native or thermally denatured DNA (0.2 and 0.1 mM, respectively) in the buffer. After incubation at room temperature for 10 min, the spectra were recorded in the 300-600 nm range (increment 1 nm) and corrected by subtracting the spectrum of the blank which was measured before addition of the drug.
# [3] = test system: [^3 H]TdR incorporation into DNA in HL-60 cells; experiment: Inhibition of [3H]TdR incorporation into DNA in HL-60 cells (initial 30 min); assay type: cell-based, human; details: for IC50: HL-60, initial 30 min exposure, read-out: ID50, M (HL-60 TdR into DNA (B)); for B/A: ratio of ID50 for TdR incorporation (B) to ID50 for cell growth (A), HL-60
# Procedure: For precursor incorporation studies, each compound at four to six concentrations (0.2% DMSO) was preincubated with HL-60 cells (2.5×10^6 /Ml) for 15 min prior to the addition of [^3 H-methyl]TdR (1 μCi, 0.15 nmol/mL) and was incubated for 30 min. […] The incorporation of radioactivity in DNA in the absence of an analogue in the presence of DMSO was used as a control.
# [4] = test system: mouse leukemia L1210 cells; experiment: Inhibition of L1210 cell growth; assay type: cell-based
# Procedure: Preliminary biological data for inhibiting cell growth of murine L1210 leukemic cells and human acute promyelocytic leukemia cells (HL-60) during 72 h of exposure to the compounds are given in Table IV. The potencies for inhibiting [^3 H]TdR incorporation into DNA in HL-60 cells during the initial 30-min period are also given in Table IV. It is interesting to note that 1,8-di-O-methyl derivatives are uniformly devoid of activity against L1210 leukemic cells. […] The B/A ratios allow an indirect estimation of whether or not cytotoxicities exerted by these analogues are primarily due to initial inhibition of DNA synthesis. […] Whether these analogues, like m-AMSA, ellipticine, or anthracyclines, act by inhibiting DNA topoisomerase II remains to be explored. […] Our preliminary experiments indicate that the compounds arrest cells in the S and/or G2 phases of the cell cycle (unpublished results).
# [5] = Mus musculus, L1210, Table I, read-out: ID50 (the source's name)
# [6] = Mus musculus, L1210, Table I, read-out: ID50 (μg/mL)
# [7] = Mus musculus, Table IV, L1210, 72 h exposure, read-out: ID50, M (L1210 cell growth)
# [8] = Mus musculus, L1210, Table II, antileukemic activity, read-out: L1210: ID50
Molecule,IC50 ([1]; Homo sapiens) [µM],"IC50 ([3]; Homo sapiens, 0.5 h) [µM]","IC50 [4, 5] [µM]","IC50 [4, 6] [µg/mL]","IC50 [4, 7] [µM]","IC50 [4, 8] [µM]",interaction with DNA [2],B/A [3],IC50 [1] [µM],IC50 [3] [µM],"IC50 ([4]; Table IV, L1210, 72 h exposure, read-out: ID50, M (L1210 cell growth)) [µM]"
"COc1cc(OC)c2c(c1)C(=O)c1cc(CN(CCO)CCO)cc(OC)c1C2=O [IXb-2, 3-[N,N-bis(2-hydroxethyl)amino]methyl-1,6,8-trimethoxy-9,10-anthraquinone]",100,17,27.7,12.5,> 27,> 27.6,,0.17,,,
CNC(=O)OCCN(CCOC(=O)NC)Cc1cc(OC)c2c(c1)C(=O)c1cccc(OC)c1C2=O [IXa-4],9.5,9.4,,,72,,,0.99,,,
"COc1cccc2c1C(=O)c1c(OC)cc(CBr)cc1C2=O [IIIa, 3-bromomethyl-1,8-dimethoxy-9,10-anthraquinone]",4.4,11,,,9.2,,,2.5,,,
"COc1cccc2c1C(=O)c1c(OC)cc(CNCCO)cc1C2=O [IXa-6, 3-[N-(2-hydroxyethyl)amino]methyl-1,8-dimethoxy-9,10-anthraquinone]",55,46,142,53.7,140,,,0.84,,,
"3-(Dibromomethyl)-1(and 8)-hydroxy-8(and 1)-methoxy-9,10anthraquinone [VIIa]",,,,,,,,217,0.06,13,4.2e-05
"COc1cccc2c1C(=O)c1c(OC)cc(CN(CCO)CCO)cc1C2=O [IXa-2, 3-[N,N-bis(2-hydroxethyl)amino]methyl-1,8-dimethoxy-9,10-anthraquinone]",490,14,> 49.8,> 21,> 50,> 50,,0.03,,,

# Further lines, with some results ahead:
IC50 ([1]; Homo sapiens) [µM],"IC50 ([3]; Homo sapiens, 0.5 h) [µM]","IC50 [4, 5] [µM]","IC50 [4, 6] [µg/mL]","IC50 [4, 7] [µM]","IC50 [4, 8] [µM]",Molecule,interaction with DNA [2],B/A [3],IC50 [1] [µM],IC50 [3] [µM],"IC50 ([4]; Table IV, L1210, 72 h exposure, read-out: ID50, M (L1210 cell growth)) [µM]"
6.6,45,13.7,5.8,14,,"COc1cc(O)c2c(c1)C(=O)c1cc(CN(CCO)CCO)cc(O)c1C2=O [XIb-2, 3-[N,N-bis(2-hydroxyethyl)amino]methyl-1,8-dihydroxy-6-methoxy-9,10-anthraquinone]",interact with both native and thermally denatured DNA but more strongly with native DNA,5.2,,,
1.6,12,0.19,0.072,0.5,,"COc1cc(O)c2c(c1)C(=O)c1cc(CNCCO)cc(O)c1C2=O [XIb-6, 3-[N-(2-hydroxyethyl)amino]methyl-1,8-dihydroxy-6-methoxy-9,10-anthraquinone]",interact with both native and thermally denatured DNA but more strongly with native DNA,7.5,,,
1.8,14,2.8,0.99,280,2.75,"CCN(CC)Cc1cc(O)c2c(c1)C(=O)c1cccc(O)c1C2=O [XIa-1, 3-[N,N-diethylamino)methyl-1,8-dihydroxy-9,10-anthraquinone]",interact with both native and thermally denatured DNA but more strongly with native DNA,7.8,,,
2.8,63,,,4,,O=C1c2cccc(O)c2C(=O)c2c(O)cc(CN3CCCCC3)cc21 [XIa-14],,22.5,,,
2.1,13,0.44,0.18,0.72,,"CCNCc1cc(O)c2c(c1)C(=O)c1cc(OC)cc(O)c1C2=O [XIb-5, 3-(N-ethylamino)methyl-1,8-dihydroxy-6-methoxy-9,10-anthraquinone]",,6.2,,,
8.7,18,0.77,0.26,,,"CCNCc1cc(O)c2c(c1)C(=O)c1cccc(O)c1C2=O [XIa-5, 3-[N-ethylamino)methyl-1,8-dihydroxy-9,10-anthraquinone]",,2.1,,,
3.2,16,,,0.67,,O=C1c2cccc(O)c2C(=O)c2c(O)cc(CNCCCO)cc21 [XIa-11],,5.0,,,
